Assays:
Orexin receptor type 2 = target: T1, Orexin receptor type 2 (Homo sapiens, UniProt O43614); experiment: Displacement of (2S)-N-(2-pyrrol-1-ylphenyl)-1-[2-[1-(tritritiomethyl)benzimidazol-2-yl]sulfanylacetyl]pyrrolidine-2-carboxamide from recombinant human OX2 receptor expressed in CHO cell membranes after 3 hrs by Topcount method
T1 sequence (O43614 whole entry): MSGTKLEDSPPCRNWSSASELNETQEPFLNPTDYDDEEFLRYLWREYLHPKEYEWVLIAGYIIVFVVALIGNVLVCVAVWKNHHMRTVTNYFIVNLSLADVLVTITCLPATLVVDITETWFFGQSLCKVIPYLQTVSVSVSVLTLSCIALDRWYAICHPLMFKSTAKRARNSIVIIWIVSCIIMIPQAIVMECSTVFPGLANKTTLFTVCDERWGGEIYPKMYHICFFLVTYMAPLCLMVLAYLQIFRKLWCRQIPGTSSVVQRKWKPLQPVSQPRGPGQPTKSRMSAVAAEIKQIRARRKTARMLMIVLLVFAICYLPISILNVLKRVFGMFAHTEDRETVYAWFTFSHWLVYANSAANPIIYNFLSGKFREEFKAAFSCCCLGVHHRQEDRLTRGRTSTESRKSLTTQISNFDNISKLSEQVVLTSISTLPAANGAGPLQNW

[1] = Displacement of (2S)-N-(2-phenylphenyl)-1-[2-[1-(tritritiomethyl)benzimidazol-2-yl]sulfanylacetyl]pyrrolidine-2-carboxamide from human OX1 receptor Ile408-Val mutant expressed on CHO cell membrane measured after 3 hrs by TopCount method
[2] = target: T2, Mineralocorticoid receptor (Homo sapiens, UniProt P08235); experiment: Antagonist activity at mineralocorticoid receptor (unknown origin)
T2 sequence (P08235 whole entry): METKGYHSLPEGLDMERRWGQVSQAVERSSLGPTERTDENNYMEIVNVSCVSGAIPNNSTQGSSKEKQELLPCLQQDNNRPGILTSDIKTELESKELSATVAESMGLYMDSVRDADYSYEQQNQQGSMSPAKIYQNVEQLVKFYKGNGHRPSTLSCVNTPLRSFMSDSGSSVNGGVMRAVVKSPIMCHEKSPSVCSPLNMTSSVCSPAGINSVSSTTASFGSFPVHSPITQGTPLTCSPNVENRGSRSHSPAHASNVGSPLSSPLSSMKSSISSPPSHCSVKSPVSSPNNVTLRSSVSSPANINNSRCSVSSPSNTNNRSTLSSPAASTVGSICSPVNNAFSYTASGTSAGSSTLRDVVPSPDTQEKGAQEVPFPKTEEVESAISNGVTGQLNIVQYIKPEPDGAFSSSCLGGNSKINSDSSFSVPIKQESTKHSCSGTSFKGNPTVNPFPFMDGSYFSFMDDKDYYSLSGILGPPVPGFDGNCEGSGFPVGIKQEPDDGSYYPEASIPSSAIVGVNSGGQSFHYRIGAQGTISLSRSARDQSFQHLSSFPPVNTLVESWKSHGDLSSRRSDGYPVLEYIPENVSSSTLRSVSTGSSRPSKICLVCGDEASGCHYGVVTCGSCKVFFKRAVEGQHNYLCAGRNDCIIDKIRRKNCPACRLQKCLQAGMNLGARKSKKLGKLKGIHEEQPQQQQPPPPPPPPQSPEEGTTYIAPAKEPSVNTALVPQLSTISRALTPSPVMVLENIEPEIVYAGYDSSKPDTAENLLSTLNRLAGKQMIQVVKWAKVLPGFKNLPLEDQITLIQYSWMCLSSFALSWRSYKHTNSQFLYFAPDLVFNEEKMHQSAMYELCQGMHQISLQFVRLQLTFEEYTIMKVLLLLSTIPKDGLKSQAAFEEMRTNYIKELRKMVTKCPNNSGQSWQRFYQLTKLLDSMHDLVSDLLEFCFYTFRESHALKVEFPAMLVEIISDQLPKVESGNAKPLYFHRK

For `Cc1ccc(-n2nccn2)c(C(=O)N2CCC[C@@H](COc3ccc(F)cn3)[C@@H]2C)c1` (relative stereo), the Ki (Orexin receptor type 2) was 0.2 nM.

For `Cc1ccc(-n2nccn2)c(C(=O)N2CCCC(COc3ccc(F)cn3)C2)c1` (stereo not drawn), the Ki [1] was 96 nM.

With `O=C1COc2ccc(N3CCc4ccc(F)cc4CC3)cc2N1` the Ki [2] was 196 nM.
